This note sets out measurements from patent US7517884B2 (Kalypsys Inc., priority 1998, dated 2009).

What all share (format): cell-based, murine and human
Details in all cases: GAL4-PPAR LBD chimera

One assay has as its target T1, PPAR-alpha (UniProt Q07869).
T1 sequence (Q07869 1-468): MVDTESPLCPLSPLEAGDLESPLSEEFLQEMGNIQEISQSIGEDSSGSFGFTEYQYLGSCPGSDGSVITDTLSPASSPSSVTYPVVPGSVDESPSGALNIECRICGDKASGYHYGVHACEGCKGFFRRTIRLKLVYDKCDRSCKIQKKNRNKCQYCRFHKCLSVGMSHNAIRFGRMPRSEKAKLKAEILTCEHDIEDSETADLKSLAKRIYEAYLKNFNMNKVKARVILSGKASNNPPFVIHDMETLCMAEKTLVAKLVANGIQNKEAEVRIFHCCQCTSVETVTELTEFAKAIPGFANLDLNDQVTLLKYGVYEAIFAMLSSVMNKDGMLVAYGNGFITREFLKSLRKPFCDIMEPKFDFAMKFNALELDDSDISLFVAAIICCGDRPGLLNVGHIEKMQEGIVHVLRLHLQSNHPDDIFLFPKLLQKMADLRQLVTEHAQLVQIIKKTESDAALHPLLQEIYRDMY
As to the kind of experiment: PPAR-alpha transactivation assay (GAL4 chimera, luciferase reporter) in CV-1 cells. Put shortly:
(§1)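 CV-1 cells transiently transfected with murine or human PPAR-alpha, -gamma or -delta ligand-binding domain fused to GAL4 DNA-binding domain plus a GAL4-site luciferase reporter. After replating in phenol-red-free DME with 5% delipidated calf serum, cells were exposed to compound 20-24 h; luciferase read-out gave EC50.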
(Reporter assays use an easily measured gene product as a stand-in for the process of interest.)

The target of the next assay is T2, PPAR-delta (UniProt Q03181).
T2 sequence (Q03181 1-441): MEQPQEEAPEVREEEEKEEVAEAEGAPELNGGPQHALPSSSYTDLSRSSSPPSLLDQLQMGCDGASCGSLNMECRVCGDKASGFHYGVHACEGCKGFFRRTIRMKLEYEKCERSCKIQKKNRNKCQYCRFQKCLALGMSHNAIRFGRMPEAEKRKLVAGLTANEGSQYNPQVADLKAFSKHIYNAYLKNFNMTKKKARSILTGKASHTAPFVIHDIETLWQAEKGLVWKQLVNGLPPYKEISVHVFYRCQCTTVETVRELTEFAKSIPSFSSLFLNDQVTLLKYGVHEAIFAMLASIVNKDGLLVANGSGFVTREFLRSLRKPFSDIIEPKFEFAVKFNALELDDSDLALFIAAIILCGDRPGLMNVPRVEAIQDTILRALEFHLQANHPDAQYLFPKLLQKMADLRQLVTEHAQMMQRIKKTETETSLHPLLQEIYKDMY
As to the kind of experiment: PPAR-delta transactivation assay (GAL4 chimera, luciferase reporter) in CV-1 cells. Put shortly: as §1

The target of a further assay is T3, PPAR-gamma (UniProt P37231).
T3 sequence (P37231 1-505): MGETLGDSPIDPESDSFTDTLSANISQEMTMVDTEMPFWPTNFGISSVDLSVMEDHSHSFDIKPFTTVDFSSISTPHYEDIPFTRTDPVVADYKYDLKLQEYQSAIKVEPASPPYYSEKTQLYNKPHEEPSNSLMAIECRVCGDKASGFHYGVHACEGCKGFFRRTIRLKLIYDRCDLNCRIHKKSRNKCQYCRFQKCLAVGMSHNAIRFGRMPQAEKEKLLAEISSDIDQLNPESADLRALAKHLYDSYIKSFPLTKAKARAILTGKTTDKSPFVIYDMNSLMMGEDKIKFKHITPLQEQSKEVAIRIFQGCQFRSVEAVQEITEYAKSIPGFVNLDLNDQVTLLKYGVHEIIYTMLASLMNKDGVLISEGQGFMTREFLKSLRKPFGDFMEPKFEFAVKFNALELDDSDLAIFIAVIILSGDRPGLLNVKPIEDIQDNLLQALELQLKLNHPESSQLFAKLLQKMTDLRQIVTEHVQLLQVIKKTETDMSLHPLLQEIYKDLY
In words: PPAR-gamma transactivation assay (GAL4 chimera, luciferase reporter) in CV-1 cells. Put shortly: as §1

pEC50: −log10 of the molar value.

`C[C@@H]1CN(c2ccc(OC(F)(F)F)cc2)C[C@H](C)N1S(=O)(=O)c1ccc2ccn(CC(=O)O)c2c1` [Example 88, {6-[cis-2,6-Dimethyl-4-(4-trifluoromethoxy-phenyl)-piperazine-1-sulfonyl]-indol-1-yl}-acetic acid]: the pEC50 (as a rule, the negative decadic logarithm of the EC50, by convention in mol/L) at PPAR-alpha is under 4.00; on PPAR-delta it was over 5.30; at PPAR-gamma, 4.00 to 5.30.
The corresponding values for `O=C(O)C1Cc2cccc(S(=O)(=O)N3CCN(c4ccc(OC(F)(F)F)cn4)CC3)c2C1` (stereo not drawn) [Example 89, 4-[4-(5-Trifluoromethoxy-pyridin-2-yl)-piperazine-1-sulfonyl]-indan-2-carboxylic acid] are over 5.30, over 5.30 and over 5.30.
On the same counts, the results for `O=C(O)Cn1ccc2ccc(S(=O)(=O)N3CCN(c4ccc(OC(F)(F)F)cc4)CC3)cc21` [Example 90, {6-[4-(4-Trifluoromethoxy-phenyl)-piperazine-1-sulfonyl]-indol-1-yl}-acetic acid] are 4.00 to 5.30, over 5.30 and 4.00 to 5.30.
On the same counts, the results for `O=C(O)CN1CCc2ccc(S(=O)(=O)N3CCN(c4ccc(OC(F)(F)F)cc4)CC3)cc21` [Example 91, {6-[4-(4-trifluoromethoxy-phenyl)-piperazine-1-sulfonyl]-2,3-dihydro-indol-1-yl}-acetic acid] are 4.00 to 5.30, over 5.30 and over 5.30.
Regarding `O=C(O)C1Cc2cccc(S(=O)(=O)N3CCN(c4ccc(Cl)cc4)CC3)c2C1` (stereo not drawn) [Example 92, 4-[4-(4-chloro-phenyl)-piperazine-1-sulfonyl]-indan-2-carboxylic acid], the pEC50 was 4.00 to 5.30 on PPAR-alpha, over 5.30 at PPAR-delta and 4.00 to 5.30 at PPAR-gamma.
For `C[C@H]1CN(c2ccc(OC(F)(F)F)cc2)CCN1S(=O)(=O)c1cccc2c1CC(C(=O)O)C2` (stereo partly drawn) [Example 93, 4-[2-(S)-Methyl-4-(4-trifluoromethoxy-phenyl)-piperazine-1-sulfonyl]-indan-2-carboxylic acid], the figures for the pEC50 at PPAR-alpha, on PPAR-delta and on PPAR-gamma were 4.00 to 5.30, over 5.30 and 4.00 to 5.30, respectively.
Consider `C[C@H]1CN(c2ccc(C(F)(F)F)cn2)CCN1S(=O)(=O)c1cccc2c1CC(C(=O)O)C2` (stereo partly drawn) [Example 94, 4-[2-(S)-Methyl-4-(5-trifluoromethyl-pyridin-2-yl)-piperazine-1-sulfonyl]-indan-2-carboxylic acid], for which the pEC50 on PPAR-alpha was 4.00 to 5.30; at PPAR-delta it was over 5.30; on PPAR-gamma, 4.00 to 5.30.
In the case of `C[C@@H]1CN(Cc2ccc(OC(F)(F)F)cc2)C[C@H](C)N1S(=O)(=O)c1cccc2c1CC(C(=O)O)C2` (stereo partly drawn) [Example 95, 4-[cis-2,6-dimethyl-4-(4-trifluoromethoxyl-benzyl)-piperazine-1-sulfonyl]-indan-2-carboxylic acid], the results for the pEC50 at PPAR-alpha, at PPAR-delta and on PPAR-gamma were 4.00 to 5.30, over 5.30 and 4.00 to 5.30, respectively.
For the compound `C[C@@H]1CN(Cc2ccc(C(F)(F)F)cc2)C[C@H](C)N1S(=O)(=O)c1cccc2c1CC(C(=O)O)C2` (stereo partly drawn) [Example 96, 4-[cis-2,6-dimethyl-4-(4-trifluoromethyl-benzyl)-piperazine-1-sulfonyl]-indan-2-carboxylic acid], the pEC50 at PPAR-alpha is under 4.00; at PPAR-delta, over 5.30; at PPAR-gamma, 4.00 to 5.30.
On the same counts, the results for `O=C(O)C1Cc2cccc(S(=O)(=O)N3CCN(Cc4ccc(C(F)(F)F)cc4)CC3)c2C1` (stereo not drawn) [Example 97, 4-[4-(4-trifluoromethyl-benzyl)-piperazine-1-sulfonyl]-indan-2-carboxylic acid] are 4.00 to 5.30, over 5.30 and 4.00 to 5.30.
The corresponding values for `O=C(O)C1Cc2cccc(S(=O)(=O)N3CCN(Cc4ccc(OC(F)(F)F)cc4)CC3)c2C1` (stereo not drawn) [Example 98, 4-[4-(4-trifluoromethoxy-benzyl)-piperazine-1-sulfonyl]-indan-2-carboxylic acid] are 4.00 to 5.30, over 5.30 and over 5.30.
Regarding `C[C@@H]1CN(c2ccc(OC(F)(F)F)cn2)C[C@H](C)N1S(=O)(=O)c1cccc2c1CC(C(=O)O)C2` (stereo partly drawn) [Example 99], the pEC50 at PPAR-alpha is 4.00 to 5.30; at PPAR-delta, over 5.30; on PPAR-gamma, 4.00 to 5.30.
Consider `C[C@@H]1CN(c2ccc(OC(F)(F)F)cc2)C[C@H](C)N1S(=O)(=O)c1ccc2scc(CC(=O)O)c2c1` [Example 100, {5-[cis-2,6-dimethyl-4-(4-trifluoromethoxy-phenyl)-piperazine-1-sulfonyl]-benzo[b]thiophen-3-yl}-acetic acid], for which the pEC50 on PPAR-alpha is 4.00 to 5.30; at PPAR-delta it was over 5.30; on PPAR-gamma it was 4.00 to 5.30.
Take `C[C@@H]1CN(c2ccc(SC(F)(F)F)cc2)C[C@H](C)N1S(=O)(=O)c1cccc2c1CC(C(=O)O)C2` (stereo partly drawn) [Example 101, 4-[cis-2,6-dimethyl-4-(4-trifluoromethylsulfanyl-phenyl)-piperazine-1-sulfonyl]-indan-2-carboxylic acid]: the values for the pEC50 on PPAR-alpha, on PPAR-delta and on PPAR-gamma were 4.00 to 5.30, over 5.30 and 4.00 to 5.30, respectively.
On to `O=C(O)C1Cc2cccc(S(=O)(=O)N3CCN(c4ccc(OC(F)(F)F)cc4)CC3)c2C1` (stereo not drawn) [Example 102, 4-[4-(-trifluoromethoxy-phenyl)-piperazine-1-sulfonyl]-indan-2-carboxylic acid], for which the pEC50 at PPAR-alpha, on PPAR-delta and at PPAR-gamma was over 5.30 in each case.
Regarding `C[C@@H]1CN(c2ccc(Cl)cc2Cl)C[C@H](C)N1S(=O)(=O)c1ccc2c(c1)C(C(=O)O)CC2` (stereo partly drawn) [Example 103, 6-[4-(2,4-dichloro-phenyl)-cis-2,6-dimethyl-piperazine-1-sulfonyl]-indan-1-carboxylic acid], the pEC50 on PPAR-alpha was 4.00 to 5.30; at PPAR-delta, over 5.30; at PPAR-gamma, 4.00 to 5.30.
As for `C[C@@H]1CN(c2ccc(C(F)(F)F)cc2)C[C@H](C)N1S(=O)(=O)c1ccc2c(c1)C(C(=O)O)CC2` (stereo partly drawn) [Example 104, 6-[cis-2,6-dimethyl-4-(4-trifluoromethyl-phenyl)-piperazine-1-sulfonyl]-indan-1-carboxylic acid], the figures for the pEC50 at PPAR-alpha, on PPAR-delta and at PPAR-gamma were over 5.30, over 5.30 and 4.00 to 5.30, respectively.
With `C[C@@H]1CN(c2ccc(C(F)(F)F)cc2)C[C@H](C)N1S(=O)(=O)c1cccc2c1CC(C(=O)O)C2` (stereo partly drawn) [Example 105, 4-[cis-2,6-Dimethyl-4-(4-trifluoromethyl-phenyl)-piperazine-1-sulfonyl]-indan-2-carboxylic acid], the figures for the pEC50 at PPAR-alpha, at PPAR-delta and on PPAR-gamma were 4.00 to 5.30, over 5.30 and 4.00 to 5.30, respectively.
On to `C[C@@H]1CN(c2ccc(C(C)(C)C)cc2)C[C@H](C)N1S(=O)(=O)c1cccc2c1CC(C(=O)O)C2` (stereo partly drawn) [Example 106, 4-[4-(4-tert-butyl-phenyl)-cis-2,6-dimethyl-piperazine-1-sulfonyl]-indan-2-carboxylic acid], for which the pEC50 was 4.00 to 5.30 at PPAR-alpha, over 5.30 on PPAR-delta and 4.00 to 5.30 on PPAR-gamma.
For the compound `C[C@@H]1CN(c2cc(Cl)c(C(F)(F)F)cn2)C[C@H](C)N1S(=O)(=O)c1cccc2c1CC(C(=O)O)C2` (stereo partly drawn) [Example 107, 4-[4-(4-Chloro-5-trifluoromethyl-pyridin-2-yl)-cis-2,6-dimethylpiperazine-1-sulfonyl]-indan-2-carboxylic acid], the pEC50 was under 4.00 on PPAR-alpha, over 5.30 on PPAR-delta and under 4.00 at PPAR-gamma.
Take `C[C@@H]1CN(c2ccc(OC(F)(F)F)cc2)C[C@H](C)N1S(=O)(=O)c1cccc2c1CC(C(N)=O)C2` (stereo partly drawn) [Example 108, 4-[cis-2,6-dimethyl-4-(4-trifluoromethoxy-phenyl)-piperazine-1-sulfonyl]-indan-2-carboxylic acid amide]: the figures for the negative-log EC50 (pEC50) at PPAR-alpha, on PPAR-delta and on PPAR-gamma were 4.00 to 5.30, over 5.30 and 4.00 to 5.30, respectively.
